According to patent publication US9695155B2, “Herbicidal substituted pyrimidinyloxy benzene compounds” (E. I. DU PONT DE NEMOURS AND COMPANY, priority 2013, dated 2017):

Experiments:
blackgrass = assay: Test C postemergence; format: in vivo, Alopecurus myosuroides; settings: Alopecurus myosuroides, post-emergence
Procedure, shortened: (§1)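 Greenhouse herbicide screen. Pre: seeded loam/sand, sprayed at planting. Post: 1–4 leaf plants (2–18 cm) in peat-based mix. Formulation: solvent mixture + surfactant, non-phytotoxic. Readout: visual % control vs untreated, 13–15 d; dash = not tested.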

morningglory [1] = assay: Test A preemergence; format: in vivo, Ipomoea spp.
Procedure, shortened: (§2)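 Scoring: eye-based comparison with untreated controls, 0 for no effect through 100 for complete control, at about day 10. Treatments: directed soil spray preemergence; foliar spray postemergence on 2–10 cm plants at the one- to two-leaf stage. Medium: loam soil with sand.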

chickweed = assay: Test C postemergence; format: in vivo, Stellaria media; settings: Stellaria media, post-emergence
Procedure, shortened: as §1

pigweed [2] = assay: Test A postemergence; format: in vivo, Amaranthus retroflexus; settings: Amaranthus retroflexus, post-emergence, read-out: Plant response rating, Pigweed
Procedure, shortened: as §2

sedge, umbrella = assay: Test B flooded paddy test; format: in vivo, Cyperus difformis; settings: Cyperus difformis, Flood, 250 g ai/ha; 0 to 100 scale where 0 is no effect and 100 is complete control; read-out: Plant response rating, Sedge, Umbrella
Procedure, shortened: (§3)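 Visual ratings on a 0 to 100 scale, where 100 means complete control, compared treated plants with controls after 13 to 15 days in a greenhouse. Treatment went into paddy water 3 cm deep over the soil, applied to plants at the 2-leaf stage.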

giant foxtail [3] = assay: Test A preemergence; format: in vivo, Setaria faberii
Procedure, shortened: as §2

large (Lg) crabgrass = assay: Test C postemergence; format: in vivo, Digitaria sanguinalis; settings: Digitaria sanguinalis, post-emergence
Procedure, shortened: as §1

Italian ryegrass = assay: Test C postemergence; format: in vivo, Lolium multiflorum
Procedure, shortened: as §1

giant foxtail [4] = assay: Test C postemergence; format: in vivo, Setaria faberii; settings: Setaria faberi, post-emergence
Procedure, shortened: as §1

morningglory [5] = assay: Test A postemergence; format: in vivo, Ipomoea spp.; settings: Ipomoea, post-emergence, 240 h, read-out: Plant response rating, Morningglory
Procedure, shortened: as §2

barnyardgrass [6] = assay: Test A preemergence; format: in vivo, Echinochloa crus-galli
Procedure, shortened: as §2

corn = assay: Test C postemergence; format: in vivo, Zea mays; settings: Zea mays, post-emergence
Procedure, shortened: as §1

barnyardgrass [7] = assay: Test B flooded paddy test; format: in vivo, Echinochloa crus-galli; settings: Echinochloa crus-galli; Flood, 250 g ai/ha; 0 to 100 scale where 0 is no effect and 100 is complete control; read-out: Plant response rating, Barnyardgrass
Procedure, shortened: as §3

pigweed [8] = assay: Test A preemergence; format: in vivo, Amaranthus retroflexus
Procedure, shortened: as §2

johnsongrass = assay: Test C postemergence; format: in vivo, Sorghum halepense
Procedure, shortened: as §1

[9] = 125 g ai/ha, 0 to 100 scale, 0 no effect, 100 complete control
[10] = 500 g ai/ha, 0 to 100 scale where 0 is no effect and 100 is complete control
[11] = 31 g ai/ha, postemergence, visual rating, scale 0 to 100 (0 no effect, 100 complete control), 13 to 15 days

SMILES: N#Cc1cccc(Oc2ncc(Cl)cn2)c1-n1cc(OCC(F)(F)F)cn1 [Compound 274, 3-[(5-chloro-2-pyrimidinyl)oxy]-2-[4-(2,2,2-trifluoroethoxy)-1H-pyrazol-1-yl]benzonitrile]
- pest or weed control at 16 g/ha (blackgrass; 16 g ai/ha, postemergence, 0 is no effect, 100 is complete control, read-out: Plant response rating (0 to 100), Blackgrass): 5%
- pest or weed control at 31 g/ha (blackgrass; 31 g ai/ha, postemergence, visual rating, scale 0 to 100 (0 no effect, 100 complete control), 13 to 15 days, read-out: Blackgrass plant response rating): 5%
- pest or weed control at 125 g/ha (blackgrass; 125 g ai/ha, postemergence, visual rating, scale 0 to 100 (0 no effect, 100 complete control), read-out: Plant response rating, Blackgrass): 20%
- pest or weed control at 62 g/ha (blackgrass; Postemergence, 62 g ai/ha, scale 0 to 100 (0 no effect, 100 complete control), 13 to 15 days, read-out: Plant response rating, Blackgrass): 15%
- Morningglory plant response rating (0 to 100 scale) (morningglory [1]; 125 g ai/ha): 100
- pest or weed control at 500 g/ha (morningglory [1]; Ipomoea, pre-emergence, 240 h, 500 g ai/ha, 0 to 100 scale where 0 is no effect and 100 is complete control, read-out: Morningglory plant response rating): 100%
- pest or weed control at 16 g/ha (chickweed; 16 g ai/ha, postemergence, 0 is no effect, 100 is complete control, read-out: Plant response rating (0 to 100), Chickweed): 70%
- pest or weed control at 31 g/ha (chickweed; 31 g ai/ha, postemergence, visual rating, scale 0 to 100 (0 no effect, 100 complete control), 13 to 15 days, read-out: Chickweed plant response rating): 70%
- pest or weed control at 125 g/ha (chickweed; 125 g ai/ha, postemergence, visual rating, scale 0 to 100 (0 no effect, 100 complete control), read-out: Plant response rating, Chickweed): 98%
- pest or weed control at 62 g/ha (chickweed; Postemergence, 62 g ai/ha, scale 0 to 100 (0 no effect, 100 complete control), 13 to 15 days, read-out: Plant response rating, Chickweed): 90%
- pest or weed control at 125 g/ha (pigweed [2]; [9]): 100%
- pest or weed control at 500 g/ha (pigweed [2]; [10]): 100%
- pest or weed control at 250 g/ha (sedge, umbrella): 95%
- Foxtail, Giant plant response rating (0 to 100 scale) (giant foxtail [3]; 125 g ai/ha): 100
- pest or weed control at 500 g/ha (giant foxtail [3]; Setaria faberi, pre-emergence, 240 h, 500 g ai/ha, 0 to 100 scale where 0 is no effect and 100 is complete control, read-out: Foxtail, Giant plant response rating): 100%
- pest or weed control at 16 g/ha (large (Lg) crabgrass; 16 g ai/ha, postemergence, 0 is no effect, 100 is complete control, read-out: Plant response rating (0 to 100), Crabgrass, Large): 5%
- pest or weed control at 31 g/ha (large (Lg) crabgrass; 31 g ai/ha, postemergence, visual rating, scale 0 to 100 (0 no effect, 100 complete control), 13 to 15 days, read-out: Crabgrass, Large plant response rating): 5%
- pest or weed control at 125 g/ha (large (Lg) crabgrass; 125 g ai/ha, postemergence, visual rating, scale 0 to 100 (0 no effect, 100 complete control), read-out: Plant response rating, Crabgrass, Large): 60%
- pest or weed control at 62 g/ha (large (Lg) crabgrass; Postemergence, 62 g ai/ha, scale 0 to 100 (0 no effect, 100 complete control), 13 to 15 days, read-out: Plant response rating, Crabgrass, Large): 30%
- Ryegrass, Italian plant response rating (Italian ryegrass; [11]): 5
- pest or weed control at 16 g/ha (Italian ryegrass; Lolium multiflorum, post-emergence, 16 g ai/ha, postemergence, 0 is no effect, 100 is complete control, read-out: Plant response rating (0 to 100), Ryegrass, Italian): 5%
- pest or weed control at 125 g/ha (Italian ryegrass; Lolium multiflorum, post-emergence, 125 g ai/ha, postemergence, visual rating, scale 0 to 100 (0 no effect, 100 complete control), read-out: Plant response rating, Ryegrass, Italian): 35%
- pest or weed control at 62 g/ha (Italian ryegrass; Lolium multiflorum, post-emergence, Postemergence, 62 g ai/ha, scale 0 to 100 (0 no effect, 100 complete control), 13 to 15 days, read-out: Plant response rating, Ryegrass, Italian): 30%
- pest or weed control at 16 g/ha (giant foxtail [4]; 16 g ai/ha, postemergence, 0 is no effect, 100 is complete control, read-out: Plant response rating (0 to 100), Foxtail, Giant): 5%
- pest or weed control at 31 g/ha (giant foxtail [4]; 31 g ai/ha, postemergence, visual rating, scale 0 to 100 (0 no effect, 100 complete control), 13 to 15 days, read-out: Foxtail, Giant plant response rating): 10%
- pest or weed control at 125 g/ha (giant foxtail [4]; 125 g ai/ha, postemergence, visual rating, scale 0 to 100 (0 no effect, 100 complete control), read-out: Plant response rating, Foxtail, Giant): 60%
- pest or weed control at 62 g/ha (giant foxtail [4]; Postemergence, 62 g ai/ha, scale 0 to 100 (0 no effect, 100 complete control), 13 to 15 days, read-out: Plant response rating, Foxtail, Giant): 10%
- pest or weed control at 125 g/ha (morningglory [5]; [9]): 90%
- pest or weed control at 500 g/ha (morningglory [5]; [10]): 100%
- Barnyardgrass plant response rating (0 to 100 scale, 0 is no effect, 100 is complete control) (barnyardgrass [6]; 125 g ai/ha): 90
- pest or weed control at 500 g/ha (barnyardgrass [6]; Echinochloa crus-galli, pre-emergence, 240 h, 500 g ai/ha, 0 to 100 scale where 0 is no effect and 100 is complete control, read-out: Barnyardgrass plant response rating): 100%
- plant injury at 16 g/ha (corn; 16 g ai/ha, postemergence, 0 is no effect, 100 is complete control, read-out: Plant response rating (0 to 100), Corn): 5%
- plant injury at 31 g/ha (corn; 31 g ai/ha, postemergence, visual rating, scale 0 to 100 (0 no effect, 100 complete control), 13 to 15 days, read-out: Corn plant response rating): 10%
- Corn plant response rating (crop injury, 0 = no effect, 100 = complete kill) at 125 g/ha (corn; 125 g ai/ha, postemergence, visual rating, scale 0 to 100 (0 no effect, 100 complete control)): 15%
- Corn plant response rating (crop injury, 0 = no effect, 100 = complete kill) at 62 g/ha (corn; Postemergence, 62 g ai/ha, scale 0 to 100 (0 no effect, 100 complete control), 13 to 15 days): 10%
- pest or weed control at 250 g/ha (barnyardgrass [7]): 65%
- Pigweed plant response rating (0 to 100 scale) (pigweed [8]; 125 g ai/ha): 100
- pest or weed control at 500 g/ha (pigweed [8]; Amaranthus retroflexus, pre-emergence, 240 h, 500 g ai/ha, 0 to 100 scale where 0 is no effect and 100 is complete control, read-out: Pigweed plant response rating): 100%
- Johnsongrass plant response rating (johnsongrass; [11]): 5
- pest or weed control at 16 g/ha (johnsongrass; Sorghum halepense, post-emergence, 16 g ai/ha, postemergence, 0 is no effect, 100 is complete control, read-out: Plant response rating (0 to 100), Johnsongrass): 5%
- pest or weed control at 125 g/ha (johnsongrass; Sorghum halepense, post-emergence, 125 g ai/ha, postemergence, visual rating, scale 0 to 100 (0 no effect, 100 complete control), read-out: Plant response rating, Johnsongrass): 10%
- pest or weed control at 62 g/ha (johnsongrass; Sorghum halepense, post-emergence, Postemergence, 62 g ai/ha, scale 0 to 100 (0 no effect, 100 complete control), 13 to 15 days, read-out: Plant response rating, Johnsongrass): 5%
